Results: patent US20050043361A1, “MitoNEET polypeptide from mitochondrial membranes, modulators thereof, and methods of using the same” (priority 2002, published 2005)
Entries after “also recorded” stand apart in the source; their conditions may differ.

How the values were obtained:
mitoNEET [1] = molecular target: T1, mitoNEET (Rattus norvegicus, UniProt B0K020); test: Photoaffinity crosslinking of 125I-labelled thiazolidinedione probe to rat liver mitochondria, with or without competing thiazolidinedione; assay type: binding
T1 construct: newly prepared crude rat liver mitochondria; from tissue; host or cells: rat liver mitochondria (Sprague-Dawley rats)
T1 sequence (B0K020 1-108): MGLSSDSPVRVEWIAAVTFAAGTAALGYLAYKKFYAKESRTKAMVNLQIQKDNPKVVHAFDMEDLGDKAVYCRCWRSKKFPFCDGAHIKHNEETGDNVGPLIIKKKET
Description: FIG. 1. A representative 10-20% SDS-PAGE gel (Coomassie stain, left panel) and autoradiogram (right panel). Crosslinking with ^125I-PNU-1010174 was conducted in rat liver mitochondria in the absence (−) or presence of 25 μM (+) of ([6-(2-{4-[(2,4-dioxo-1,3-thiazolidin-5-yl)methyl]phenoxy}ethyl)pyridin-3-yl]acetic acid) (TZD) as described in Example 1. Lanes 1 and 2 are from the rinsed mitochondrial pellet, lanes 3 and 4 represent the same incubations solubilized with 1% Triton X 114, and lanes 5 and 6 are the ammonium sulfate (AS) precipitation of the Triton X 114 soluble material.
FIG. 2. The ammonium sulfate pellets of Triton X 114—soluble mitoNEET from 14 separate incubations conducted with or without competitor were resuspended in a total volume of 200 μl and subjected to HPLC as described in Example 4. Representative data for the minus competitor condition is shown. […] The ^125I, profile from the in-line gamma detector is shown in the lower right panel. The left hand panels show the silver-stained gel (upper left) and corresponding autoradiogram (lower left) of the relevant fractions. Data are shown for a representative rat liver mitochondrial preparation. The ^125I-crosslinked mitoNEET seen in fraction 31 was not present in the preparations crosslinked in the combined presence of ([6-(2-{4-[(2,4-dioxo-1,3-thiazolidin-5-yl)methyl]phenoxy}ethyl)pyridin-3-yl]acetic acid) (not shown). […]

mitoNEET [2] = molecular target: T2, mitoNEET (Bos taurus, UniProt Q3ZBU2); test: Photoaffinity crosslinking of 125I-labelled thiazolidinedione probe to bovine brain mitochondrial fractions (B3/B4); assay type: binding; details: stored, frozen bovine brain mitochondrial fractions (B3/B4); UV crosslinking
T2 construct: from tissue; host or cells: steer brain, sucrose-density mitochondrial fractions B3/B4
T2 sequence (Q3ZBU2 2-106 limits assumed): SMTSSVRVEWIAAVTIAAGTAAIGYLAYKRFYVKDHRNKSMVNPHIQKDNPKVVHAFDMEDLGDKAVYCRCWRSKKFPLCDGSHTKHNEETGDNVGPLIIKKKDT
Description: Bovine brain mitochondria were harvested from bovine brains. This procedure involved dissection of steer brains freshly obtained from a local packinghouse. The rinsed brains were homogenized in fractionation buffer (250 mM sucrose, 50 mM Tris, pH=8.0, containing 1 μg/ml pepstatin A, 5 μg/ml leupeptin, 10 μg/ml bacitracin, and 0.1 mM PMSF). Following removal of nuclei at 5000 rpm in a Beckman Ti50, the mitochondrial pellet was harvested at 20,000×g (12,500 rpm in a Beckman Ti50 rotor) and further enriched by sucrose density centrifugation. Membrane fractions were collected from top of the 1.18 and 1.20 density bands, re-suspended in 50 mM Tris, and collected by centrifugation. The factions (“B3/B4”) were stored at −80° C. until use.
Crosslinking reactions were carried out in a final volume of 200 μl, containing 100 μl membranes, 50 μl 4% DMSO with or without competing thiazolidinedione (usually 100 μM ([6-(2-{4-[(2,4-dioxo-1,3-thiazolidin-5-yl)methyl]phenoxy}ethyl)pyridin-3-yl]acetic acid), 25 μM final concentration), and 50 μl carrier-free ^125I-4-azido-N-[2-({[6-(2-{4-[(2,4-dioxo-1,3-thiazolidin-5-yl)methyl]phenoxy}ethyl)pyridin-3-yl]acetyl}amino)ethyl]-2-hydroxybenzamide (0.1-0.2 μCi/tube). […]

fatty acid oxidation = test: Oxidation of palmitoyl CoA by solubilized mitochondria with and without synthetic mitoNEET (HPLC); assay type: biochemical; details: excess synthetic mitoNEET; solubilized mitochondrial preparations; CoASH, NAD, FAD, 1 mM palmitoyl CoA
Description: FIG. 10. Oxidation of palmitoyl CoA was measured by solubilized mitochondria with and without the addition of synthetic mitoNEET. Reactions were conducted in the presence of CoASH, NAD, FAD, and 1 mM palmitoyl CoA. Remaining palmitoyl CoA at various time points after incubation is shown in the absence (closed circles) and presence of excess synthetic mitoNEET peptide 11A (closed squares). There was no loss of substrate in the absence of mitochondrial membranes (open triangles). Substrate and generated CoA products were measured by HPLC.
Full-length mitoNEET synthesized as in Example 6 was extended to contain a N-terminal biotin. […] A number of these proteins have been identified and are know to be involved in fatty acid oxidation. […] Modulation of mitoNEET function would be expected to increase fatty acid oxidation. Such an approach to find useful modulators as described herein may be taken with synthetic peptide or membranes containing endogenous or overexpressed mitoNEET.

Molecule: [N-]=[N+]=Nc1cc(O)c(C(=O)NCCNC(=O)Cc2ccc(CCOc3ccc(CC4SC(=O)NC4=O)cc3)nc2)cc1[125I] (stereo not shown)
- labeling of mitoNEET by crosslinking (mitoNEET [1]; newly prepared crude rat liver mitochondria, UV crosslinking, carrier-free probe 0.1-0.2 μCi/tube): labeling of the mitoNEET
- labeling of mitoNEET by crosslinking (mitoNEET [2]): labeling of the mitoNEET

Molecule: O=C(O)Cc1ccc(CCOc2ccc(CC3SC(=O)NC3=O)cc2)nc1 (stereo not shown) [[6-(2-{4-[(2,4-dioxo-1,3-thiazolidin-5-yl)methyl]phenoxy}ethyl)pyridin-3-yl]acetic acid]
- 125I-crosslinked mitoNEET peak (HPLC) in presence of competitor (mitoNEET [1]; competitor 25 μM final concentration, HPLC with in-line gamma detector, fraction 31, identical results with bovine brain fractions): lacked this peak; also recorded: not present

B1: synthetic mitoNEET: Full-length mitoNEET polypeptide made by peptide synthesis (peptide, UniProt Q9NZ45 1-108, looked up)
chain: MSLTSSSSVRVEWIAAVTIAAGTAAIGYLAYKRFYVKDHRNKAMINLHIQKDNPKIVHAFDMEDLGDKAVYCRCWRSKKFPFCDGAHTKHNEETGDNVGPLIIKKKET
modifications: full-length chemically synthesized
notes: Full-length mitoNEET polypeptide made by peptide synthesis
- effect on fatty acid oxidation (remaining palmitoyl CoA) (fatty acid oxidation): inhibits fatty acid oxidation
